Read-outs that look alike come from different tables or passages of the source.
Experiments:
[1] = test system: Azospira suillum strain PS (wild type); conditions: grown aerobically, 40 μM chlorite
Procedure: (§1) Azospira suillum PS (ATCC BAA-33/DSMZ 13638) was revived from a lab freezer stock and used as the wild-type strain for all genetic manipulations. Various E. coli strains were also used for cloning and conjugation purposes. Prior to all growth curves and genetic manipulations, all strains were streaked out from master freezer stocks to get single colonies.
(§2) E. coli strains were grown in LB media. Kanamycin (Kan, […]) was used for selection and diaminopimelic acid (DAP, 0.3 mM) was used as a supplement to cultivate the auxotrophic strain WM3064. For routine culturing as well as growth assays, wild-type and mutant strains of PS were grown in ALP media. One liter of ALP media is composed of 0.49 g monobasic sodium phosphate dihydrate, 0.97 g dibasic anhydrous sodium phosphate, 0.1 g potassium chloride, 0.25 g ammonium chloride, 0.82 g sodium acetate, 2.0 g yeast extract, 7.6 g of a 60% w/w sodium lactate solution, 1.10 g sodium pyruvate and 10 mL of both vitamin mix and mineral mix. To make solid ALP media for plates, 15 g/L agar was added. Kanamycin was used for selection of PS mutants at a concentration of […]. For anaerobic growth of PS, ALP media was supplemented with either 5 mM sodium nitrate, 2.5 mM sodium perchlorate, or 5 mM of both sodium nitrate and sodium perchlorate.

[2] = test system: Azospira suillum strain PS Δcld mutant; conditions: grown aerobically, 40 μM chlorite
Procedure: as §1, §2

[3] = test system: Pseudomonas chloritidismutans; conditions: LB, 60 μM chlorite alone, 37° C
Procedure: (§7) For growth experiments, P. chloritidismutans was grown in LB medium to an OD600 of 0.233 (selected from a dilution series made from an overnight culture). […] Each condition was replicated in six wells of a microtiter plate incubated at 37° C. Optical density (600 nm) was recorded during growth in a plate reader.

[4] = test system: Caulobacter crescentus NA1000 harboring pJS14-xylX::cld; conditions: PYE with 0.3% xylose
Procedure: (§3) Wild-type Caulobacter crescentus NA1000 (Marks, M. E., et al. (2010) J. Bacteriol. 192:3678-88) was grown in peptone-yeast extract medium (PYE; see Ely, B. (1991) Methods Enzymol. 204:372-84) supplemented with 0.1% (v/v) ferrous sulphate/chelate solution (Sigma # F0518). The plasmid pJS14 is a derivative of the broad-host-range cloning vector pBBR1MCS (Kovach, M. E., et al. (1994) Biotechniques 16:800-2), which confers resistance to chloramphenicol. To express Cld from pJS14, the cld open reading frame from P. chloritidismutans was placed behind a ˜430 base pair NcoI-EcoRI fragment of the xylX promoter from C. crescentus (Meisenzahl, A. C., et al. (1997) J. Bacteriol. 179:592-600). pJS14-xylX::cld or the empty vector pJS14 was transformed into NA1000 with selection using 1 μg/ml chloramphenicol.
(§4) The two strains were grown separately in PYE/chloramphenicol/ferrous sulphate supplemented with 0.3% xylose to induce cld expression. […] Each strain/condition was assayed in six individual wells.

[5] = test system: wild-type Caulobacter crescentus NA1000 harboring pJS14; conditions: PYE with 0.3% xylose
Procedure: as §3, §4

[6] = test system: Shewanella oneidensis strain MR-1 wild type containing an empty expression vector (strain RAM13); conditions: aerobic
[7] = test system: Shewanella oneidensis strain MR-1 engineered strain (ICC38); conditions: aerobic
[8] = test system: bacteriophage that attacks Pseudomonas chloritidismutans; conditions: LB, 60 μM chlorite plus phage together, 37° C
Procedure: as §7

lytic phage particles = conditions: culture medium treated with chlorite at 15 mM; cited from earlier work
[9] = test system: Caulobacter strain KR3557 (chlorite dismutase expression plasmid); conditions: 0.5 mM chlorite, 1:1 co-culture with KR260, 30° C
Procedure: (§5) Caulobacter crescentus NA 1000 harboring either pJS71 (KR260) or pJS14-xylX::cld (KR3557) were grown in PYE medium supplemented with 0.1% ferrous sulphate/chelate (Sigma # F0518) and 0.3% xylose to induce cld expression. pJS71 is a derivative of the broad-host-range plasmid pBBR1MCS (Kovach, M. E., et al. (1994) Biotechniques 16:800-2), which confers resistance to spectinomycin. […] Samples were withdrawn from each co-culture at the indicated times, diluted, and plated on PYE medium supplemented with 1 μg/ml chloramphenicol or with 100 μg/ml spectinomycin to enumerate survivors of each species.
(§6) Rather, both strains were co-cultured in PYE medium without selection, samples were taken, and the number of surviving colonies that were resistant to spectinomycin (KR260) or chloramphenicol (KR3557) were counted at the indicated times (FIG. 8).

[10] = test system: Caulobacter strain KR260 (empty plasmid); conditions: 0.5 mM chlorite, 1:1 co-culture with KR3557, 30° C
Procedure: as §5, §6

For chlorite, the “growth of the wild type strain” value [1] was “unimpaired”, the “growth of the Δcld mutant” value [2] was “no growth is observed” and the “growth of P. chloritidismutans” value [3] was “did not hinder the growth”. The “growth of Caulobacter expressing chlorite dismutase versus control medium lacking chlorite” value ([4]; 1 mM chlorite) was “growing at the same rate”, the “growth of Caulobacter expressing chlorite dismutase versus control medium lacking chlorite” value ([4]; 4 mM chlorite) was “growing at the same rate” and the “growth of wild-type Caulobacter (pJS14)” value ([5]; 1 mM chlorite) was “completely blocked”. The “growth of wild-type Caulobacter (pJS14)” value ([5]; 4 mM chlorite) was “completely blocked”, the “growth of the wild type strain (RAM13)” value ([6]; 250 μM chlorite) was “significant reduction in the growth rate” and the “growth of the wild type strain (RAM13)” value ([6]; 1000 μM chlorite) was “completely inhibited”. For the same substance, the “growth of the recombinantly engineered strain (ICC38)” value ([7]; 250 μM chlorite) was “unimpaired”, the “growth of the recombinantly engineered strain (ICC38)” value ([7]; 1000 μM chlorite) was “minimal growth impairment” and the “growth of P. chloritidismutans with live phage” value [8] was “wild-type growth rate”. For the same substance, the “reduction in lytic phage particles” value (lytic phage particles) was “greater than 99%”, the “growth of KR3557 in co-culture” value [9] was “slightly reduced rate” and the “growth of KR260 in co-culture” value [10] was “completely blocked”.

From patent publication US10724010B2 (The Regents of the University of California, priority 2013, dated 2020)
